Among the data in patent US8871756B2 (Hoffmann-La Roche Inc., priority 2011, dated 2014) are EC50 values, retold here.

Where a name gives a salt, the structure may show the parent alone.

The assay relates to RSV Long strain. As to the kind of experiment: Viral cytopathic effect (CPE) assay, anti-RSV activity. It is filed as cell-based, Respiratory Syncytial Virus. The conditions noted are these: human respiratory syncytial virus, 144 h, RSV Long strain (ATCC); cell viability after 6 days, Cell Counting kit-8. The method, boiled down:
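Cells (6×10^3/well, DMEM with 10% FBS) were infected next day with RSV Long strain, at a dose giving approximately 80–90% CPE, alongside serial half-log compound dilutions. Viability was read after 6 days by CCK-8 absorbance at 450 nm (reference 630 nm), and EC50 was derived from it.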
In general terms: Cytopathic effects are the visible damage that an infection or toxin causes in cultured cells.

Broadly, the EC50 is the concentration needed to bring the measured effect to its halfway point. A lower EC50 goes with greater potency. As to `Cc1cc2c(NCC3(N)COC3)cc(N3CCS(=O)(=O)c4ccccc4C3)nc2c(F)c1F` [Example 5-10, N-[(3-Aminooxetan-3-yl)methyl]-2-(1,1-dioxido-2,3-dihydro-1,4-benzothiazepin-4(5H)-yl)-7,8-difluoro-6-methylquinolin-4-amine], a half-maximal response (EC50) required 0.397 µM.

On to `NCC1(CNc2cc(N3CC[S+]([O-])c4ccccc4C3)nc3ccc(Cl)cc23)COC1` (stereo not drawn) [Example 18-9, N-{[3-(Aminomethyl)oxetan-3-yl]methyl}-6-chloro-2-(1-oxido-2,3-dihydro-1,4-benzothiazepin-4(5H)-yl)quinolin-4-amine], for which the EC50 was found to be 0.005 µM. This EC50 is about 79-fold lower than that of the compound before.

`Cc1ccc2nc(N3CC[S+]([O-])c4ccccc4C3)cc(NCCO)c2c1` (stereo not drawn) [Example 18-11, 2-{[6-Methyl-2-(1-oxido-2,3-dihydro-1,4-benzothiazepin-4(5H)-yl)quinolin-4-yl]amino}ethanol] returned an EC50 of 0.619 µM.

For the compound `Cc1ccc2nc(N3CCS(=O)(=O)c4ccccc4C3)cc(NCC(O)CO)c2c1` (stereo not drawn) [Example 32-1, 3-{[2-(1,1-Dioxido-2,3-dihydro-1,4-benzothiazepin-4(5H)-yl)-6-methylquinolin-4-yl]amino}propane-1,2-diol], the EC50 turned out to be 0.019 µM. This EC50 lies about 33-fold lower than the previous one.

For `CCNC(=O)Nc1cc(N2CCS(=O)(=O)c3ccccc3C2)nc2ccc(C)cc12` [Example 50-2, 1-[2-(1,1-Dioxido-2,3-dihydro-1,4-benzothiazepin-4(5H)-yl)-6-methylquinolin-4-yl]-3-ethylurea], a half-maximal effect (EC50) was put at 2.42 µM.

In turn, `NCC1(CNc2nc(N3CCS(=O)(=O)c4ccccc4C3)nc3ccc(Cl)cc23)COC1` [Example 56-3, N-{[3-(aminomethyl)oxetan-3-yl]methyl}-6-chloro-2-(1,1-dioxido-2,3-dihydro-1,4-benzothiazepin-4(5H)-yl)quinazolin-4-amine] gave an EC50 of 0.004 µM.

As for `Cc1ccc2nc(N3CCS(=O)(=O)c4ccccc4C3)cc(NCC3CCCCN3)c2c1` (stereo not drawn) [Example 3-41, 2-(1,1-Dioxido-2,3-dihydro-1,4-benzothiazepin-4(5H)-yl)-6-methyl-N-(piperidin-2-ylmethyl)quinolin-4-amine], the EC50 was 0.071 µM.

As to `Cc1ccc2nc(N3CCS(=O)(=O)c4c(F)cccc4C3)cc(NCC3(N)COC3)c2c1` [Example 1-4, N-[(3-Aminooxetan-3-yl)methyl]-2-(9-fluoro-1,1-dioxido-2,3-dihydro-1,4-benzothiazepin-4(5H)-yl)-6-methylquinolin-4-amine], a half-maximal effect (EC50) was put at 0.004 µM.

On to `Cc1ccc2nc(N3CCS(=O)(=O)c4ccccc4C3)cc(N[C@@H](C)C(=O)O)c2c1` [Example 14-1, N-[2-(1,1-Dioxido-2,3-dihydro-1,4-benzothiazepin-4(5H)-yl)-6-methylquinolin-4-yl]-L-alanine], for which the EC50 came out at 2.19 µM.

`NC1=NCC(CNc2cc(N3CCCc4ccccc4C3)nc3ccc(Cl)cc23)O1` (stereo not drawn) [Example 126-2, N-[(2-Amino-4,5-dihydro-1,3-oxazol-5-yl)methyl]-6-chloro-2-(1,3,4,5-tetrahydro-2H-2-benzazepin-2-yl)quinolin-4-amine] returned an EC50 of 0.638 µM. Against the preceding compound, the EC50 is about 3.4-fold lower.

In the case of `CNCCNc1cc(N2CCCc3ccccc3C2)nc2ccccc12` [Example 118-14, N-Methyl-N′-[2-(1,3,4,5-tetrahydro-2H-2-benzazepin-2-yl)quinolin-4-yl]ethane-1,2-diamine], the response was half-maximal at 0.616 µM (EC50).

The compound `Cc1ccc2nc(N3CCS(=O)(=O)c4ccccc4C3)cc(NC(=O)Nc3ccccc3)c2c1` [Example 50-1, 1-[2-(1,1-Dioxido-2,3-dihydro-1,4-benzothiazepin-4(5H)-yl)-6-methylquinolin-4-yl]-3-phenylurea] had an EC50 of 0.931 µM.

Compound `Cc1ccc2nc(N3CCS(=O)(=O)c4ccccc4C3)cc(NCC3CCNCC3)c2c1` [Example 3-29, 2-(1,1-Dioxido-2,3-dihydro-1,4-benzothiazepin-4(5H)-yl)-6-methyl-N-(piperidin-4-ylmethyl)quinolin-4-amine] gave an EC50 of 0.022 µM.

`Cc1ccc2nc(N3CCC(F)(F)c4ccccc4C3)nc(NCC3(CN)COC3)c2c1` [Example 114-3, N-{[3-(Aminomethyl)oxetan-3-yl]methyl}-2-(5,5-difluoro-1,3,4,5-tetrahydro-2H-2-benzazepin-2-yl)-6-methylquinazolin-4-amine] displayed an EC50 of 0.004 µM.

With `Cc1ccc2nc(N3CCS(=O)(=O)c4ccccc4C3)cc(NCC(C)O)c2c1` (stereo not drawn) [Example 5-7, 1-{[2-(1,1-Dioxido-2,3-dihydro-1,4-benzothiazepin-4(5H)-yl)-6-methylquinolin-4-yl]amino}propan-2-ol], the midpoint of the response, the EC50, lay at 0.941 µM.

The compound `Cc1ccc2nc(N3CCS(=O)(=O)c4ccccc4C3)cc(NC(=O)C3CCNCC3)c2c1` [Example 3-62, N-[2-(1,1-Dioxido-2,3-dihydro-1,4-benzothiazepin-4(5H)-yl)-6-methylquinolin-4-yl]piperidine-4-carboxamide] gave a concentration giving a half-maximal response (EC50) of 0.589 µM.

Turning to `CS(=O)(=O)c1ccc2c(c1)CCCN(c1cc(NCCN)c3ccccc3n1)C2` [Example 120-1, N-{2-[7-(Methylsulfonyl)-1,3,4,5-tetrahydro-2H-2-benzazepin-2-yl]quinolin-4-yl}ethane-1,2-diamine], the response was half-maximal at 2.19 µM (EC50).

`NC1(CNc2nc(N3CCS(=O)(=O)c4ccccc4C3)nc3ccc(Cl)cc23)COC1` [Example 57-6, N-[(3-Aminooxetan-3-yl)methyl]-6-chloro-2-(1,1-dioxido-2,3-dihydro-1,4-benzothiazepin-4(5H)-yl)quinazolin-4-amine] showed an EC50 of 0.037 µM.

`Cc1ccc2nc(N3CCSc4ccccc4C3)cc(N3CCC(N)C3)c2c1` (stereo not drawn) [Example 4-4, 1-[2-(2,3-Dihydro-1,4-benzothiazepin-4(5H)-yl)-6-methylquinolin-4-yl]pyrrolidin-3-amine]: the EC50 came out at 0.208 µM.

As to `Cc1ccc2nc(N3CCS(=O)(=O)c4ccccc4C3)cc(NCCN3CCNCC3)c2c1` [Example 3-28, 2-(1,1-Dioxido-2,3-dihydro-1,4-benzothiazepin-4(5H)-yl)-6-methyl-N-[2-(piperazin-1-yl)ethyl]quinolin-4-amine], the EC50 came out at 0.149 µM.

In turn, `Cc1ccc2nc(N3CCS(=O)(=O)c4ccccc4C3)cc(NCCC(=O)O)c2c1` [Example 14-2, N-[2-(1,1-Dioxido-2,3-dihydro-1,4-benzothiazepin-4(5H)-yl)-6-methylquinolin-4-1]-beta-alanine] gave a 50% effective concentration (EC50) of 8.79 µM.

Consider `Cc1ccc2nc(N3CCS(=O)(=O)c4ccccc4C3)cc(NC[C@H](C)N)c2c1` [Example 5-8, (2S)—N˜1˜-[2-(1,1-Dioxido-2,3-dihydro-1,4-benzothiazepin-4(5H)-yl)-6-methylquinolin-4-yl]propane-1,2-diamine], for which the EC50 came to 0.022 µM.

Regarding `COc1ccc2c(c1)S(=O)(=O)CCN(c1cc(NCC3(CN)COC3)c3cc(Cl)ccc3n1)C2` [Example 3-14, N-{[3-(Aminomethyl)oxetan-3-yl]methyl}-6-chloro-2-(8-methoxy-1,1-dioxido-2,3-dihydro-1,4-benzothiazepin-4(5H)-yl)quinolin-4-amine], the EC50 was 0.017 µM.

`Cc1ccc2nc(N3CCC(F)(F)c4ccccc4C3)cc(N(C)CCN)c2c1` [Example 111-3, N-[2-(5,5-Difluoro-1,3,4,5-tetrahydro-2H-2-benzazepin-2-yl)-6-methylquinolin-4-yl]-N-methylethane-1,2-diamine] showed an EC50 of 0.0768 µM. This EC50 is about 4.5-fold higher than that of the compound before.

With `COc1cccc2c1S(=O)(=O)CCN(c1cc(NCC3(N)COC3)c3cc(C)ccc3n1)C2` [Example 65, N-[(3-Aminooxetan-3-yl)methyl]-2-(9-methoxy-1,1-dioxido-2,3-dihydro-1,4-benzothiazepin-4(5H)-yl)-6-methylquinolin-4-amine], it took 0.322 µM to reach a half-maximal effect (EC50).

Turning to `NCCCNc1cc(N2CCS(=O)(=O)c3ccccc3C2)nc2ccc(C(F)(F)F)cc12` [Example 17-2, N-[2-(1,1-Dioxido-2,3-dihydro-1,4-benzothiazepin-4(5H)-yl)-6-(trifluoromethyl)quinolin-4-yl]propane-1,3-diamine], the EC50 came out at 0.616 µM. Compared with the last compound, the EC50 is about 1.9-fold higher.

Take `NCC(F)(F)CNc1cc(N2CCS(=O)(=O)c3ccccc3C2)nc2ccc(Cl)cc12` [Example 3-20, N-[6-Chloro-2-(1,1-dioxido-2,3-dihydro-1,4-benzothiazepin-4(5H)-yl)quinolin-4-yl]-2,2-difluoropropane-1,3-diamine]: the EC50 was 0.507 µM.

`Cc1ccc2nc(N3CCS(=O)(=O)c4ccccc4C3)cc(OCCN)c2c1` [Example 97, 2-{[2-(1,1-Dioxido-2,3-dihydro-1,4-benzothiazepin-4(5H)-yl)-6-methylquinolin-4-yl]oxy}ethanamine] showed an EC50 of 0.177 µM. This EC50 is about 2.9-fold lower than that of the compound before.

Take `NC1(CNc2cc(N3CCS(=O)(=O)c4ccccc4C3)nc3ccc(Cl)cc23)COC1` [Example 3-22, N-[(3-Aminooxetan-3-yl)methyl]-6-chloro-2-(1,1-dioxido-2,3-dihydro-1,4-benzothiazepin-4(5H)-yl)quinolin-4-amine]: the EC50 was 0.032 µM.

Compound `Cc1ccc2nc(N3CCS(=O)(=O)c4ccccc4C3)nc(NC3CCNC3)c2c1` (stereo not drawn) [Example 135-2, 2-(1,1-Dioxido-2,3-dihydro-1,4-benzothiazepin-4(5H)-yl)-6-methyl-N-(pyrrolidin-3-yl)quinazolin-4-amine] yielded an EC50 of 0.018 µM. Compared with the last compound, the EC50 is about 1.8-fold lower.

With `Cc1ccc2nc(N3CCS(=O)(=O)c4ccccc4C3)cc(N3CCC(N)C3)c2c1` (stereo not drawn) [Example 25, 1-[2-(1,1-Dioxido-2,3-dihydro-1,4-benzothiazepin-4(5H)-yl)-6-methylquinolin-4-yl]pyrrolidin-3-amine], the EC50 is 0.002 µM.

On to `Cc1ccc2nc(N3CCS(=O)(=O)c4ccccc4C3)cc(N3C[C@@H](O)[C@@H](N)C3)c2c1` (relative stereo) [Example 13, cis-4-amino-1-[2-(1,1-Dioxido-2,3-dihydro-1,4-benzothiazepin-4(5H)-yl)-6-methylquinolin-4-yl]pyrrolidin-3-ol], for which the EC50 is 0.026 µM.

`Cc1ccc2nc(N3CCS(=O)(=O)c4ccccc4C3)cc(NS(C)(=O)=O)c2c1` [Example 47-7, N-[2-(1,1-Dioxido-2,3-dihydro-1,4-benzothiazepin-4(5H)-yl)-6-methylquinolin-4-yl]methanesulfonamide trifluoroacetate] yielded an EC50 of 3.41 µM.
